{"source": "patent US6602899B1", "about": "“β-D-5 thioxylose derivatives, preparation method and therapeutic use” (Fournier Industrie & Sante, priority 1999, dated 2003)", "key": {"venous thrombus": {"test_system": "venous thrombus", "details": "administered orally, doses of 6 mg/kg and above; cited from earlier work"}, "venous thrombosis": {"test_system": "venous thrombosis", "test": "venous thrombosis test (venous stasis under hypercoagulation, WESSLER technique, activated factor X)", "type": "in vivo, Wistar male rats", "details": "rat; for Activity p.o. T = 4 h (percentage inhibition of thrombus weight): thrombosis induced 4 h after administration; for Activity p.o. T = 8 h (percentage inhibition of thrombus weight): thrombosis induced 8 h after administration; for inhibition in vivo at 5 mg/kg: iv, i.v. in PEG 400, 5 mg/kg, thrombosis induced 2 h after administration, read-out: Activity i.v. T = 2 h (percentage inhibition relative to thrombus weight with vehicle)", "method": "The test products are administered either orally (tubage) dissolved or suspended in PEG 400, or by intravenous injection dissolved in PEG 400. The concentration of the compounds is calculated so that the amount of solution absorbed is 2 ml/kg by oral administration and 1 ml/kg by intravenous injection. The compounds are generally administered intravenously at a dose of 5 mg/kg. If the test is performed after oral administration, the amount administered is calculated so as to correspond to about 2.10^−5 mol/kg. Thrombosis is induced at a time T (2 h, 4 h or 8 hours) after the administration of the product, and the thrombus formed is removed and weighed. To induce this thrombosis, a venous stasis is created under hypercoagulation according to the technique described by WESSLER (J. Applied Physiol. 1959, pp. 943-946), the hypercoagulating agent used being a solution of activated factor X (Xa) having a concentration of 7.5 nKat/kg, supplied by Biogenic. The results obtained, expressed as the percentage inhibition calculated relative to the weight of a thrombus obtained in the absence of active principle in the vehicle, are collated in Table I below. The activity of the test compounds was checked at different doses after they had been administered either orally (p.o.) or intravenously (i.v.). The thrombosis was induced 4 hours or 8 hours after oral administration of the compound and 2 hours after intravenous administration."}, "[1]": {"test": "solubility in injectable solvents", "type": "physicochemical", "details": "especially water and PEG 400"}}, "data": [{"smiles": "Cc1cc(=O)oc2cc(O[C@@H]3SC[C@@H](O)[C@H](O)[C@H]3O)ccc12", "note": "[D, 4-methyl-2-oxo-2H-1-benzopyran-7-yl 5-thio-β-D-xylopyranoside, reference compound]", "values": [{"measurement": "reduction of the formation of a venous thrombus", "setting": "venous thrombus", "result": "more than 80%"}, {"measurement": "Activity p.o. T = 4 h (percentage inhibition of thrombus weight)", "setting": "venous thrombosis; p.o. in PEG 400, 6 mg/kg", "result": 84, "unit": "%"}, {"measurement": "Activity p.o. T = 8 h (percentage inhibition of thrombus weight)", "setting": "venous thrombosis; p.o. in PEG 400, 6 mg/kg", "result": 15, "unit": "%"}, {"measurement": "solubility in injectable solvents", "setting": "[1]", "result": "insoluble"}]}, {"smiles": "COC(=O)O[C@@H]1[C@@H](OC(=O)OC)[C@H](OC(=O)OC)CS[C@H]1Oc1ccc2c(C)cc(=O)oc2c1", "note": "[Ex. 1, 4-Methyl-2-oxo-2H-1-benzopyran-7-yl 2,3,4-tri-O-methoxycarbonyl-5-thio-β-D-xylopyranoside]", "values": [{"measurement": "inhibition in vivo at 5 mg/kg", "setting": "venous thrombosis", "result": 84, "unit": "%"}, {"measurement": "Activity p.o. T = 4 h (percentage inhibition of thrombus weight)", "setting": "venous thrombosis; p.o. in PEG 400, 9 mg/kg", "result": 87, "unit": "%"}, {"measurement": "Activity p.o. T = 8 h (percentage inhibition of thrombus weight)", "setting": "venous thrombosis; p.o. in PEG 400, 9 mg/kg", "result": 66, "unit": "%"}]}, {"smiles": "CCOC(=O)O[C@@H]1[C@@H](OC(=O)OCC)[C@H](OC(=O)OCC)CS[C@H]1Oc1ccc2c(C)cc(=O)oc2c1", "note": "[Ex. 2, 4-Methyl-2-oxo-2H-1-benzopyran-7-yl 2,3,4-tri-O-ethoxycarbonyl-5-thio-β-D-xylopyranoside]", "values": [{"measurement": "inhibition in vivo at 5 mg/kg", "setting": "venous thrombosis", "result": 73, "unit": "%"}]}, {"smiles": "CCCOC(=O)O[C@@H]1[C@@H](OC(=O)OCCC)[C@H](OC(=O)OCCC)CS[C@H]1Oc1ccc2c(C)cc(=O)oc2c1", "note": "[Ex. 3, 4-Methyl-2-oxo-2H-1-benzopyran-7-yl 2,3,4-tri-O-propoxycarbonyl-5-thio-β-D-xylopyranoside]", "values": [{"measurement": "inhibition in vivo at 5 mg/kg", "setting": "venous thrombosis", "result": 71, "unit": "%"}]}, {"smiles": "CCCCOC(=O)O[C@@H]1[C@@H](OC(=O)OCCCC)[C@H](OC(=O)OCCCC)CS[C@H]1Oc1ccc2c(C)cc(=O)oc2c1", "note": "[Ex. 4, 4-Methyl-2-oxo-2H-1-benzopyran-7-yl 2,3,4-tri-O-butoxycarbonyl-5-thio-β-D-xylopyranoside]", "values": [{"measurement": "inhibition in vivo at 5 mg/kg", "setting": "venous thrombosis", "result": 60, "unit": "%"}]}, {"smiles": "Cc1cc(=O)oc2cc(O[C@@H]3SC[C@@H](OC(=O)OCC(C)C)[C@H](OC(=O)OCC(C)C)[C@H]3OC(=O)OCC(C)C)ccc12", "note": "[Ex. 5, 4-Methyl-2-oxo-2H-1-benzopyran-7-yl 2,3,4-tri-O-(2-methylpropoxycarbonyl)-5-thio-β-D-xylopyranoside]", "values": [{"measurement": "inhibition in vivo at 5 mg/kg", "setting": "venous thrombosis", "result": 65, "unit": "%"}]}, {"smiles": "COCCOC(=O)O[C@@H]1[C@@H](OC(=O)OCCOC)[C@H](OC(=O)OCCOC)CS[C@H]1Oc1ccc2c(C)cc(=O)oc2c1", "note": "[Ex. 6, 4-Methyl-2-oxo-2H-1-benzopyran-7-yl 2,3,4-tri-O-(2-methoxyethoxycarbonyl)-5-thio-β-D-xylopyranoside]", "values": [{"measurement": "inhibition in vivo at 5 mg/kg", "setting": "venous thrombosis", "result": 52, "unit": "%"}]}, {"smiles": "C=CCC(=O)O[C@@H]1[C@@H](OC(=O)CC=C)[C@H](OC(=O)CC=C)CS[C@H]1Oc1ccc2c(C)cc(=O)oc2c1", "note": "[Ex. 7, 4-Methyl-2-oxo-2H-1-benzopyran-7-yl 2,3,4-tri-O-(2-propenylcarbonyl)-5-thio-β-D-xylopyranoside]", "values": [{"measurement": "inhibition in vivo at 5 mg/kg", "setting": "venous thrombosis", "result": 66, "unit": "%"}]}, {"smiles": "C=COC(=O)O[C@@H]1[C@@H](OC(=O)OC=C)[C@H](OC(=O)OC=C)CS[C@H]1Oc1ccc2c(C)cc(=O)oc2c1", "note": "[Ex. 8, 4-Methyl-2-oxo-2H-1-benzopyran-7-yl 2,3,4-tri-O-(ethenyloxycarbonyl)-5-thio-β-D-xylopyranoside]", "values": [{"measurement": "inhibition in vivo at 5 mg/kg", "setting": "venous thrombosis", "result": 65, "unit": "%"}]}, {"smiles": "Cc1cc(=O)oc2cc(O[C@@H]3SC[C@@H](OC(=O)OCCO)[C@H](OC(=O)OCCO)[C@H]3OC(=O)OCCO)ccc12", "note": "[Ex. 9, 4-Methyl-2-oxo-2H-1-benzopyran-7-yl 2,3,4-tri-O-(2-hydroxyethoxycarbonyl)-5-thio-β-D-xylopyranoside]", "values": [{"measurement": "inhibition in vivo at 5 mg/kg", "setting": "venous thrombosis", "result": 27, "unit": "%"}, {"measurement": "Activity p.o. T = 4 h (percentage inhibition of thrombus weight)", "setting": "venous thrombosis; p.o. in PEG 400, 11 mg/kg", "result": 93, "unit": "%"}, {"measurement": "Activity p.o. T = 8 h (percentage inhibition of thrombus weight)", "setting": "venous thrombosis; p.o. in PEG 400, 11 mg/kg", "result": 29, "unit": "%"}]}]}
